From patent US12391679B2, “Benzamide-substituted bicyclic imidazo- and pyrazolo-fused -pyridine, -pyrimide, and -pyridazine compounds for treatment of inflammatory diseases” (ONCO3R Therapeutics BV, priority 2019, dated 2025)

Tested on: LPS triggered IL-10 secretion in monocytes
Test: Monocytes assay: LPS-triggered IL-10 (ELISA)
Type: cell-based, human
Conditions: Homo sapiens, Monocyte, LPS-triggered IL-10 induction, median maximal fold change vs LPS only, read-out: IL-10 FCmax median
Protocol: This assay evaluates illustrative compounds of the invention for their inhibition of LPS-induced TNFα and LPS triggered IL-10 secretion in monocytes.
PBMCs are isolated from human blood samples (buffycoats). The buffy coat is aseptically transferred into a 50 mL Falcon tube, and diluted 1/2 in PBS. Falcon tubes are filled with 20 mL Lymphoprep™, on top of which 25 mL of the buffy coat is carefully added, tubes are centrifuged for 35 min at 400 g in temperature controlled centrifuge, without brake, at 25° C. PBMCs are aspirated from the white interface layer between sample and Lymphoprep™. PBMCs are washed five times in PBS.
PBMCs are centrifuged at 300×g for 10 min and resuspended at a density of 1.0*10^7 cells/80 μL Miltenyi buffer (PBS, pH 7.4, 1% FBS, 2 mM EDTA).
Starting from this point of the protocol all steps are performed on ice. 20 μL of CD14+ micro-beads are added per 1.0*10^7 cells, the tube is mixed and incubated for 15 min in the fridge at 4° C. Cell suspension volume is adjusted to total volume of 100 mL using Miltenyi buffer, mixed gently and subsequently centrifuged for 10 min at 300×g. Supernatant is discarded and cell pellet is resuspended in 12 mL of Miltenyi buffer.
Four LS columns are placed in the MACS Separator (magnet) from Miltenyi Biotec, and are prewet by rinsing with 3 mL of MACS buffer per column. Three mL of cell suspension is added onto the column (max 1*10^8 of labelled cells/column), and columns are subsequently washed 3 times with 3 mL of Miltenyi buffer.
The columns are removed from the magnets, and 5 mL of Miltenyi buffer are added to the column to flush out the CD14+ fraction by pushing the plunger into the column. The flushed fractions are collected in a fresh 50 mL Falcon and volume is adjusted to 30 mL using Miltenyi buffer, cells are centrifuged for 10 min at 300×g. The obtained cell pellet is resuspended in 10 mL RPMI w/o FBS, and cell density is determined using a hematologic analyser (Sysmex XS-500i).
A compound dilution plate is made in 100% DMSO by 3-fold dilution of 10 mM stock solution. An intermediate dilution plate (10× final concentration) is made by diluting the compound dilution plate 50-fold in RPMI medium.
10 μL of the 10× final concentration compound is added to the cells and incubated for 1 h at 37° C. before addition of trigger. No trigger conditions/trigger conditions are spiked with equal final DMSO concentrations of 0.2% DMSO. 10 μL of 10×LPS (final conc. 200 ng/mL) solution are added to all wells except for the ‘no trigger wells’ where 10 μL medium is added. Supernatant is collected after 4 h of LPS triggering.
A Lumitrac 600 Greiner 384-well plate is coated with 40 μL of capture antibody (final concentration of 1 μg/mL in 1×PBS) and stored overnight at 4° C. The next day the plate is washed three times with PBST (PBS+0.05% Tween20) and once with PBS followed by the addition of 100 μL of blocking buffer (1% BSA-5% Sucrose) and plates are sealed and incubated for at least 4 h at RT. After washing the plate once with PBST and once with PBS, 40 μL of standard or sample are added (IL-10 standard curve is prepared using a 1/2 serial dilution starting from 2000 pg/mL; dilutions are made in dilution buffer (PBS+1% BSA)). […] Plates are washed twice with PBST, and once with PBS, whereafter 35 μL of Strep-HRP conjugate (0.5 μg/mL final concentration diluted in dilution buffer) is added. Plates are incubated in the dark, at RT for at least 45 min but no longer than 1 h. Plates are washed twice with PBST, and once with PBS. Thereafter, 50 μL of luminol substrate is added to each well (prepared according to manufacturer's instructions), and incubated for 5 min at RT protected from light.
To quantify these increases, fold changes (FC) compared to ‘LPS only’ are calculated for each concentration tested and the maximal FC is calculated (IL-10 FCmax): […]

`COc1cc(-c2cnc3cc([C@@](C)(C#N)CO)ccn23)cc(OC(F)F)c1C(=O)NC1CC1` (single isomer, unassigned) [Cpd 189, 4-[7-(1-cyano-2-hydroxy-1-methyl-ethyl)imidazo[1,2-a]pyridin-3-yl]-N-cyclopropyl-2-(difluoromethoxy)-6-methoxy-benzamide] and `CCC(C)(C#N)c1ccn2c(-c3cc(OC)c(C(=O)NC4CC4)c(OC(F)F)c3)cnc2c1` (centres unmarked) [Cpd 27, 4-[7-(1-cyano-1-methyl-propyl)imidazo[1,2-a]pyridin-3-yl]-N-cyclopropyl-2-(difluoromethoxy)-6-methoxy-benzamide] cannot be ordered by maximal fold induction: under 1.5 for the first, under 1.5 for the second.

`COc1cc(-c2cnn3cc(C(C)(C)C#N)ccc23)cc(OC(F)F)c1C(=O)N[C@@H]1C[C@H]1F` (single isomer, unassigned) [Cpd 257, 4-[6-(1-cyano-1-methyl-ethyl)pyrazolo[1,5-a]pyridin-3-yl]-2-(difluoromethoxy)-N-(2-fluorocyclopropyl)-6-methoxy-benzamide] and `COc1cc(-c2cnc3cc(C(C)(C)C#N)ccn23)cc(OC(F)F)c1C(=O)N[C@@H]1C[C@@H]1F` [Cpd 79, 4-[7-(1-cyano-1-methyl-ethyl)imidazo[1,2-a]pyridin-3-yl]-2-(difluoromethoxy)-N-[(1R,2S)-2-fluorocyclopropyl]-6-methoxy-benzamide] fall in the same range of maximal fold induction: 1.5 to 4.5 for the first, 1.5 to 4.5 for the second.

First: COc1cc(-c2cnc3cc(C(C)(C)O)ccn23)cc(OC(F)F)c1C(=O)NC1CC1 [Cpd 35, N-cyclopropyl-2-(difluoromethoxy)-4-[7-(1-hydroxy-1-methyl-ethyl)imidazo[1,2-a]pyridin-3-yl]-6-methoxy-benzamide]
Second: CCC(C)(O)c1ccn2c(-c3cc(OC)c(C(=O)NC4CC4)c(OC(F)F)c3)cnc2c1 (centres unmarked) [Cpd 137, N-cyclopropyl-2-(difluoromethoxy)-4-[7-(1-hydroxy-1-methyl-propyl)imidazo[1,2-a]pyridin-3-yl]-6-methoxy-benzamide]
The maximal fold induction of the first is higher: 1.5 to 4.5 for the first, under 1.5 for the second.

Compared with `COc1cc(-c2cnc3cc(C(C)(C)C#N)ccn23)cc(OC(F)F)c1C(=O)NCC1CC1` [Cpd 39, 4-[7-(1-cyano-1-methyl-ethyl)imidazo[1,2-a]pyridin-3-yl]-N-(cyclopropylmethyl)-2-(difluoromethoxy)-6-methoxy-benzamide], `COc1cc(-c2cnc3cc(C(C)(C)CO)ccn23)cc(OC(F)F)c1C(=O)NC1CC1` [Cpd 150, N-cyclopropyl-2-(difluoromethoxy)-4-[7-(2-hydroxy-1,1-dimethyl-ethyl)imidazo[1,2-a]pyridin-3-yl]-6-methoxy-benzamide] is lower in maximal fold induction: 1.5 to 4.5 for the first, under 1.5 for the second.

Compared with `COc1cc(-c2cnc3cc(C(C)(C)C#N)ccn23)cc(OC(F)F)c1C(=O)N1CC(C#N)C1` [Cpd 77, 1-[4-[7-(1-cyano-1-methyl-ethyl)imidazo[1,2-a]pyridin-3-yl]-2-(difluoromethoxy)-6-methoxy-benzoyl]azetidine-3-carbonitrile], `COc1cc(-c2cnc3cc(C(C)(C)C(C)O)ccn23)cc(OC(F)F)c1C(=O)NC1CC1` (centres unmarked) [Cpd 172, N-cyclopropyl-2-(difluoromethoxy)-4-[7-(2-hydroxy-1,1-dimethyl-propyl)imidazo[1,2-a]pyridin-3-yl]-6-methoxy-benzamide] is lower in maximal fold induction: 1.5 to 4.5 for the first, under 1.5 for the second.

`COc1cc(-c2cnc3cc(C4(C#N)CCOCC4)ccn23)cc(OC)c1C(=O)NCC(F)(F)F` [Cpd 107, 4-[7-(4-cyanotetrahydropyran-4-yl)imidazo[1,2-a]pyridin-3-yl]-2,6-dimethoxy-N-(2,2,2-trifluoroethyl)benzamide] and `COc1cc(-c2cnc3cc(C4(C#N)CCOCC4)ccn23)cc(OC(F)F)c1C(=O)NC1CC1` [Cpd 116, 4-[7-(4-cyanotetrahydropyran-4-yl)imidazo[1,2-a]pyridin-3-yl]-N-cyclopropyl-2-(difluoromethoxy)-6-methoxy-benzamide] fall in the same range of maximal fold induction: 1.5 to 4.5 for the first, 1.5 to 4.5 for the second.

`COc1cc(-c2cnc3cc(C4(C#N)COC4)ccn23)cc(OC(F)F)c1C(=O)NC1CC1` [Cpd 117, 4-[7-(3-cyanooxetan-3-yl)imidazo[1,2-a]pyridin-3-yl]-N-cyclopropyl-2-(difluoromethoxy)-6-methoxy-benzamide] and `COc1cc(-c2cnc3cc(C4(C#N)CCOC4)ccn23)cc(OC(F)F)c1C(=O)NC1CC1` (centres unmarked) [Cpd 123, 4-[7-(3-cyanotetrahydrofuran-3-yl)imidazo[1,2-a]pyridin-3-yl]-N-cyclopropyl-2-(difluoromethoxy)-6-methoxy-benzamide] fall in the same range of maximal fold induction: 1.5 to 4.5 for the first, 1.5 to 4.5 for the second.

`COc1cc(-c2cnc3cc(C(C)(O)C(F)(F)F)ccn23)cc(OC(F)F)c1C(=O)NC1CC1` (centres unmarked) [Cpd 129, N-cyclopropyl-2-(difluoromethoxy)-6-methoxy-4-[7-(2,2,2-trifluoro-1-hydroxy-1-methyl-ethyl)imidazo[1,2-a]pyridin-3-yl]benzamide] and `COc1cc(-c2cnc3cc(C(F)(F)CO)ccn23)cc(OC(F)F)c1C(=O)NC1CC1` [Cpd 136, N-cyclopropyl-4-[7-(1,1-difluoro-2-hydroxy-ethyl)imidazo[1,2-a]pyridin-3-yl]-2-(difluoromethoxy)-6-methoxy-benzamide] fall in the same range of maximal fold induction: 1.5 to 4.5 for the first, 1.5 to 4.5 for the second.

`COc1cc(-c2cnc3cc(C4(C#N)COC4)ccn23)cc(OC(F)F)c1C(=O)N[C@@H]1C[C@@H]1F` [Cpd 130, 4-[7-(3-cyanooxetan-3-yl)imidazo[1,2-a]pyridin-3-yl]-2-(difluoromethoxy)-N-[(1R,2S)-2-fluorocyclopropyl]-6-methoxy-benzamide] and `COc1cc(-c2cnc3cc(C4(O)CCC4)ccn23)cc(OC(F)F)c1C(=O)NC1CC1` [Cpd 173, N-cyclopropyl-2-(difluoromethoxy)-4-[7-(1-hydroxycyclobutyl)imidazo[1,2-a]pyridin-3-yl]-6-methoxy-benzamide] fall in the same range of maximal fold induction: 1.5 to 4.5 for the first, 1.5 to 4.5 for the second.

`COc1cc(-c2cnc3cc(C4CCC4)c(F)cn23)cc(OC(F)F)c1C(=O)NC1CC1` [Cpd 168, 4-(7-cyclobutyl-6-fluoro-imidazo[1,2-a]pyridin-3-yl)-N-cyclopropyl-2-(difluoromethoxy)-6-methoxy-benzamide] and `COc1cc(-c2cnc3cc(C4CCCN4C)ccn23)cc(OC(F)F)c1C(=O)NC1CC1` (centres unmarked) [Cpd 171, N-cyclopropyl-2-(difluoromethoxy)-6-methoxy-4-[7-(1-methylpyrrolidin-2-yl)imidazo[1,2-a]pyridin-3-yl]benzamide] fall in the same range of maximal fold induction: 1.5 to 4.5 for the first, 1.5 to 4.5 for the second.

For `COc1cc(-c2cnc3cc(C4(O)CCOCC4)ccn23)cc(OC(F)F)c1C(=O)NC1CC1` [Cpd 170, N-cyclopropyl-2-(difluoromethoxy)-4-[7-(4-hydroxytetrahydropyran-4-yl)imidazo[1,2-a]pyridin-3-yl]-6-methoxy-benzamide], the maximal fold induction was 1.5 to 4.5.

Same assay, conditions: LPS-triggered IL-10 induction, median maximal fold change vs LPS only

`COc1cc(-c2cnc3cc([C@@](C)(C#N)CO)ccn23)cc(OC(F)F)c1C(=O)NC1CC1` (single isomer, unassigned) [Cpd 190, 4-[7-(1-cyano-2-hydroxy-1-methyl-ethyl)imidazo[1,2-a]pyridin-3-yl]-N-cyclopropyl-2-(difluoromethoxy)-6-methoxy-benzamide] was tested, and the “IL-10 FCmax median” value was “+ (+ ≤1.5)”.
With `COc1cc(-c2cnn3cc(C(C)(C)C#N)ccc23)cc(OC(F)F)c1C(=O)N[C@@H]1C[C@H]1F` (single isomer, unassigned) [Cpd 258, 4-[6-(1-cyano-1-methyl-ethyl)pyrazolo[1,5-a]pyridin-3-yl]-2-(difluoromethoxy)-N-(2-fluorocyclopropyl)-6-methoxy-benzamide] the “IL-10 FCmax median” value was “+ (+ ≤1.5)”.
